How the values were obtained:
morningglory = assay: Test B pre/postemergence morningglory; assay type: in vivo, Ipomoea hederacea; details: Preemergence, scale of 0 to 10 where 0 is no effect and 10 is complete control; for Morningglory plant response rating: Rate 62 g/ha; for Plant response rating, Morningglory: Rate 125 g/ha
Summary of the method: (§1)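 Test chemicals in a non-phytotoxic solvent mixture with surfactant were sprayed preemergence onto planted seeds and postemergence onto plants 2 to 18 cm tall (1- to 4-leaf stage). After twelve to sixteen days in a greenhouse, injury was visually rated against untreated controls from 0 (no effect) to 10 (complete control).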

crabgrass = assay: Test B pre/postemergence crabgrass; assay type: in vivo, Digitaria sanguinalis; details: Preemergence; for Crabgrass plant response rating: Rate 62 g/ha
Summary of the method: as §1

cocklebur = assay: Test B pre/postemergence cocklebur; assay type: in vivo, Xanthium strumarium; details: Preemergence; for Cocklebur plant response rating: Rate 62 g/ha
Summary of the method: as §1

corn = assay: Test B pre/postemergence corn; assay type: in vivo, Zea mays; details: Preemergence; for Corn plant response rating: Rate 62 g/ha
Summary of the method: as §1

velvetleaf = assay: Test B pre/postemergence velvetleaf; assay type: in vivo, Abutilon theophrasti; details: Preemergence, scale of 0 to 10 where 0 is no effect and 10 is complete control; for Velvetleaf plant response rating: Rate 62 g/ha; for Plant response rating, Velvetleaf: Rate 125 g/ha
Summary of the method: as §1

wheat = assay: Test B pre/postemergence wheat; assay type: in vivo, Triticum aestivum; details: Preemergence, scale of 0 to 10 where 0 is no effect and 10 is complete control; for Wheat plant response rating: Rate 62 g/ha; for Plant response rating, Wheat: Rate 125 g/ha
Summary of the method: as §1

blackgrass = assay: Test B pre/postemergence blackgrass; assay type: in vivo, Alopecurus myosuroides; details: Preemergence; for Blackgrass plant response rating: Rate 62 g/ha
Summary of the method: as §1

purple nutsedge = assay: Test B pre/postemergence purple nutsedge; assay type: in vivo, Cyperus rotundus; details: Preemergence, scale of 0 to 10 where 0 is no effect and 10 is complete control; for Nutsedge plant response rating: Rate 62 g/ha; for Plant response rating, Nutsedge: Rate 125 g/ha
Summary of the method: as §1

sugar beet = assay: Test B pre/postemergence sugar beet; assay type: in vivo, Beta vulgaris; details: Preemergence, scale of 0 to 10 where 0 is no effect and 10 is complete control; for Sugarbeets plant response rating: Rate 62 g/ha; for Plant response rating, Sugarbeets: Rate 125 g/ha
Summary of the method: as §1

soybean = assay: Test B pre/postemergence soybean; assay type: in vivo, Glycine max; details: Preemergence, scale of 0 to 10 where 0 is no effect and 10 is complete control; for Soybean plant response rating: Rate 62 g/ha; for Plant response rating, Soybean: Rate 125 g/ha
Summary of the method: as §1

wild oat = assay: Test B pre/postemergence wild oat; assay type: in vivo, Avena fatua; details: Preemergence, scale of 0 to 10 where 0 is no effect and 10 is complete control; for Wild oats plant response rating: Rate 62 g/ha; for Plant response rating, Wild oats: Rate 125 g/ha
Summary of the method: as §1

giant foxtail = assay: Test B pre/postemergence giant foxtail; assay type: in vivo, Setaria faberii; details: Preemergence, scale of 0 to 10 where 0 is no effect and 10 is complete control; for Giant foxtail plant response rating: Rate 62 g/ha; for Plant response rating, Giant foxtail: Rate 125 g/ha
Summary of the method: as §1

rape = assay: Test B pre/postemergence rape; assay type: in vivo, Brassica napus; details: Preemergence, scale of 0 to 10 where 0 is no effect and 10 is complete control; for Rape plant response rating: Rate 62 g/ha; for Plant response rating, Rape: Rate 125 g/ha
Summary of the method: as §1

bedstraw = assay: Test B pre/postemergence bedstraw; assay type: in vivo, Galium aparine; details: Preemergence; for Bedstraw plant response rating: Rate 62 g/ha
Summary of the method: as §1

pigweed = assay: Test B pre/postemergence pigweed; assay type: in vivo, Amaranthus retroflexus; details: Preemergence, scale of 0 to 10 where 0 is no effect and 10 is complete control; for Redroot pigweed plant response rating: Rate 62 g/ha; for Plant response rating, Redroot pigweed: Rate 125 g/ha
Summary of the method: as §1

surinam grass = assay: Test B pre/postemergence surinam grass; assay type: in vivo, Brachiaria decumbens; details: Preemergence; for B. signalgrass plant response rating: Rate 62 g/ha
Summary of the method: as §1

[1] = scale of 0 to 10 where 0 is no effect and 10 is complete control
[2] = Rate 125 g/ha, scale of 0 to 10 where 0 is no effect and 10 is complete control
[3] = Rate 250 g/ha, scale 0 to 10 (0 no effect, 10 complete control)
[4] = Rate 500 g/ha, scale of 0 to 10 where 0 is no effect and 10 is complete control

## CCn1ncc(Cn2c(=O)on(C(=O)N(c3ccc(Cl)cc3)C(C)C)c2=O)c1Cl [Compound 684]
morningglory
  Morningglory plant response rating: 0
  Plant response rating, Morningglory: 0
crabgrass; [1]
  Crabgrass plant response rating: 3
crabgrass; [2]
  Plant response rating, Crabgrass: 7
crabgrass; [3]
  Plant response rating, Crabgrass: 9
cocklebur; [1]
  Cocklebur plant response rating: 0
cocklebur; [2]
  Plant response rating, Cocklebur: 0
cocklebur; [3]
  Plant response rating, Cocklebur: 0
cocklebur; [4]
  Plant response rating, Cocklebur: 0
corn; [1]
  Corn plant response rating: 0
corn; [2]
  Plant response rating, Corn: 0
corn; [3]
  Plant response rating, Corn: 0
velvetleaf
  Velvetleaf plant response rating: 0
  Plant response rating, Velvetleaf: 0
wheat
  Wheat plant response rating: 0
  Plant response rating, Wheat: 0
blackgrass; [1]
  Blackgrass plant response rating: 1
blackgrass; [2]
  Plant response rating, Blackgrass: 3
blackgrass; [3]
  Plant response rating, Blackgrass: 4
blackgrass; [4]
  Plant response rating, Blackgrass: 7
Purple nutsedge
  Nutsedge plant response rating: 0
  Plant response rating, Nutsedge: 0
Sugar beet
  Sugarbeets plant response rating: 0
  Plant response rating, Sugarbeets: 0
soybean
  Soybean plant response rating: 0
  Plant response rating, Soybean: 0
Wild oat
  Wild oats plant response rating: 0
  Plant response rating, Wild oats: 0
Giant foxtail
  Giant foxtail plant response rating: 7
  Plant response rating, Giant foxtail: 9
rape
  Rape plant response rating: 0
  Plant response rating, Rape: 0
bedstraw; [1]
  Bedstraw plant response rating: 0
bedstraw; [2]
  Plant response rating, Bedstraw: 0
bedstraw; [3]
  Plant response rating, Bedstraw: 0
bedstraw; [4]
  Plant response rating, Bedstraw: 0
pigweed
  Redroot pigweed plant response rating: 0
  Plant response rating, Redroot pigweed: 0
Surinam grass; [1]
  B. signalgrass plant response rating: 0
Surinam grass; [2]
  Plant response rating, B. signalgrass: 0
Surinam grass; [3]
  Plant response rating, B. signalgrass: 4
Surinam grass; [4]
  Plant response rating, B. signalgrass: 5

## CCC(C)N(C(=O)n1oc(=O)n(C(C)C)c1=O)c1ccc(F)cc1 (stereo not drawn) [Compound 689]
morningglory
  Morningglory plant response rating: 0
  Plant response rating, Morningglory: 3
crabgrass; [1]
  Crabgrass plant response rating: 9
crabgrass; [2]
  Plant response rating, Crabgrass: 9
crabgrass; [3]
  Plant response rating, Crabgrass: 10
cocklebur; [1]
  Cocklebur plant response rating: 0
cocklebur; [2]
  Plant response rating, Cocklebur: 0
cocklebur; [3]
  Plant response rating, Cocklebur: 0
cocklebur; [4]
  Plant response rating, Cocklebur: 0
corn; [1]
  Corn plant response rating: 0
corn; [2]
  Plant response rating, Corn: 6
corn; [3]
  Plant response rating, Corn: 9
velvetleaf
  Velvetleaf plant response rating: 2
  Plant response rating, Velvetleaf: 3
wheat
  Wheat plant response rating: 0
  Plant response rating, Wheat: 0
blackgrass; [1]
  Blackgrass plant response rating: 9
blackgrass; [2]
  Plant response rating, Blackgrass: 9
blackgrass; [3]
  Plant response rating, Blackgrass: 10
blackgrass; [4]
  Plant response rating, Blackgrass: 10
Purple nutsedge
  Nutsedge plant response rating: 0
  Plant response rating, Nutsedge: 0
Sugar beet
  Sugarbeets plant response rating: 0
  Plant response rating, Sugarbeets: 2
soybean
  Soybean plant response rating: 0
  Plant response rating, Soybean: 0
Wild oat
  Wild oats plant response rating: 7
  Plant response rating, Wild oats: 9
Giant foxtail
  Giant foxtail plant response rating: 10
  Plant response rating, Giant foxtail: 10
rape
  Rape plant response rating: 0
  Plant response rating, Rape: 0
bedstraw; [1]
  Bedstraw plant response rating: 0
bedstraw; [2]
  Plant response rating, Bedstraw: 0
bedstraw; [3]
  Plant response rating, Bedstraw: 7
bedstraw; [4]
  Plant response rating, Bedstraw: 5
pigweed
  Redroot pigweed plant response rating: 3
  Plant response rating, Redroot pigweed: 7
Surinam grass; [1]
  B. signalgrass plant response rating: 2
Surinam grass; [2]
  Plant response rating, B. signalgrass: 4
Surinam grass; [3]
  Plant response rating, B. signalgrass: 9
Surinam grass; [4]
  Plant response rating, B. signalgrass: 10

## CC(C)N(C(=O)n1oc(=O)n(C(C)C(=O)N2CCOCC2)c1=O)c1ccc(Cl)cc1 (stereo not drawn) [Compound 703]
morningglory
  Morningglory plant response rating: 0
  Plant response rating, Morningglory: 0
crabgrass; [1]
  Crabgrass plant response rating: 5
crabgrass; [2]
  Plant response rating, Crabgrass: 8
crabgrass; [3]
  Plant response rating, Crabgrass: 9
cocklebur; [1]
  Cocklebur plant response rating: 0
cocklebur; [2]
  Plant response rating, Cocklebur: 0
cocklebur; [3]
  Plant response rating, Cocklebur: 0
cocklebur; [4]
  Plant response rating, Cocklebur: 0
corn; [1]
  Corn plant response rating: 0
corn; [2]
  Plant response rating, Corn: 0
corn; [3]
  Plant response rating, Corn: 0
velvetleaf
  Velvetleaf plant response rating: 0
  Plant response rating, Velvetleaf: 0
wheat
  Wheat plant response rating: 0
  Plant response rating, Wheat: 0
blackgrass; [1]
  Blackgrass plant response rating: 0
blackgrass; [2]
  Plant response rating, Blackgrass: 3
blackgrass; [3]
  Plant response rating, Blackgrass: 6
blackgrass; [4]
  Plant response rating, Blackgrass: 8
Purple nutsedge
  Nutsedge plant response rating: 0
  Plant response rating, Nutsedge: 0
Sugar beet
  Sugarbeets plant response rating: 0
  Plant response rating, Sugarbeets: 0
soybean
  Soybean plant response rating: 0
  Plant response rating, Soybean: 0
Wild oat
  Wild oats plant response rating: 0
  Plant response rating, Wild oats: 0
Giant foxtail
  Giant foxtail plant response rating: 5
  Plant response rating, Giant foxtail: 7
rape
  Rape plant response rating: 0
  Plant response rating, Rape: 0
bedstraw; [1]
  Bedstraw plant response rating: 0
bedstraw; [2]
  Plant response rating, Bedstraw: 0
bedstraw; [3]
  Plant response rating, Bedstraw: 0
bedstraw; [4]
  Plant response rating, Bedstraw: 0
pigweed
  Redroot pigweed plant response rating: 0
  Plant response rating, Redroot pigweed: 4
Surinam grass; [1]
  B. signalgrass plant response rating: 2
Surinam grass; [2]
  Plant response rating, B. signalgrass: 3
Surinam grass; [3]
  Plant response rating, B. signalgrass: 3
Surinam grass; [4]
  Plant response rating, B. signalgrass: 8

From patent publication US6737383B1, “Herbicidal oxadiazolidines” (priority 1999, dated 2004)
